# Source: patent publication US12280066B2, “Methods and compositions related to glucocorticoid receptor antagonists and breast cancer” (The University of Chicago, priority 2010, dated 2025)
# Key:
# [1] = tested on: T-R MCF-7 (ER+/PR+/GR+) cells; assay: Annexin V FACS apoptosis assay, T-R MCF-7 cells; type: cell-based; conditions: mifepristone/paclitaxel 10^-6 M compared to paclitaxel alone, 20 hours, P=0.028
# Procedure: (§1) Apoptosis was measured using FITC conjugated-anti-Annexin V antibody labeling followed FACS analysis to determine the percentage of the total cell population undergoing apoptosis after 20 hours of treatment.
# [2] = tested on: glucocorticoid receptor (GR); conditions: literature (Moran et al., 2000; Mikosz et al., 2001); cited from earlier work
# [3] = tested on: MDA-MB-231 human breast cancer cells; assay: MDA-MB-231 xenograft tumor volume in SCID mice; conditions: mifepristone 15 mg/kg i.p. two hours prior to paclitaxel 10 mg/kg, five successive days, compared to paclitaxel alone, P=0.013
# [4] = tested on: Parental MCF-7 (ER+/PR+/GR+) cells; assay: Annexin V FACS apoptosis assay, parental MCF-7 cells; type: cell-based; conditions: mifepristone/paclitaxel 10^-6 M compared to paclitaxel alone, 20 hours
# Procedure: as §1
compound,measurement,setting,value
CC#C[C@]1(O)CC[C@H]2[C@@H]3CCC4=CC(=O)CCC4=C3[C@@H](c3ccc(N(C)C)cc3)C[C@@]21C [mifepristone],apoptosis (percentage of total cell population undergoing apoptosis),[1],Significantly more apoptosis
same,apoptosis (percentage of total cell population undergoing apoptosis),[1]; listed as Mifepristone,increases
same,reversal of GR-initiated cell survival signaling,[2],reverses cell survival signaling pathways initiated by the GR
same,tumor volume over time,[3],increases MDA-MB-231 tumor susceptibility to paclitaxel
same,tumor volume over time,[3]; listed as Mifepristone,significantly decreased tumor volume over time
same,apoptosis (percentage of total cell population undergoing apoptosis),[4],No difference
same,apoptosis (percentage of total cell population undergoing apoptosis),[4]; listed as Mifepristone,not parental MCF-7
